The results in this text go back to EPA's ToxRefDB 2.

For orientation: LOAEL means the lowest dose or exposure tested at which an adverse effect was seen. Broadly, the NOAEL is the highest tested level that showed no adverse finding.

The test system of series [1] is rat. Particulars: Prenatal developmental toxicity study, sprague dawley, Oral, Gavage/Intubation, dose end: 15 GD.
Series [2] relates to rat. The following applies: Subchronic dermal toxicity, sprague dawley, Topical, dose end: 13 week, group: systemic, systemic / in life observation / clinical signs / desquamation + systemic / in life observation / clinical signs / erythema + systemic / in ….
Series [3] has as its system rabbit. Particulars: Prenatal developmental toxicity study; new zealand white; Oral; Gavage/Intubation; dose end: 18 GD; group: maternal; systemic / in life observation / body weight / body weight gain.
Series [4] has as its system rat. The following applies: Chronic toxicity, fischer, Oral, Gavage/Intubation, dose end: 1 year, group: systemic.
In series [5] the test system is mouse. The following applies: Subchronic oral toxicity in rodents, b6c3f1, Gavage/Intubation, dose end: 13 week, group: systemic.
Series [6] concerns mouse. The following applies: Carcinogenicity; cd1; Oral; Gavage/Intubation; dose end: 104 week; group: systemic; systemic / pathology microscopic / gallbladder / adenoma + systemic / pathology microscopic / gallbladder / hemangioma + systemic / ….
Series [7] relates to rat. Particulars: Subchronic oral toxicity in rodents, fischer, Gavage/Intubation, dose end: 90 day, group: systemic, systemic / clinical chemistry / cholesterol / cholesterol + systemic / in life observation / food consumption / food consumption + systemic….
Series [8] has as its system rat. The following applies: Subchronic oral toxicity in rodents, wistar, Feed, dose end: 90 day, group: systemic, systemic / in life observation / clinical signs / motor activity + systemic / organ weight / kidney / relative to body weight + systemic / ….
Series [9] concerns rat. The following applies: Prenatal developmental toxicity study, Oral, Gavage/Intubation, dose end: 19 GD.
The mark [10] stands for this setting: group: developmental, developmental / developmental malformation / bone / bent + systemic / in life observation / body weight / fetal weight.
Where [11] appears, read: group: maternal, systemic / in life observation / body weight / body weight + systemic / in life observation / body weight / body weight gain + systemic / in….
Setting [12] is: systemic / in life observation / body weight / body weight.
[13] abbreviates: systemic / in life observation / body weight / body weight + systemic / organ weight / adrenal gland / relative to body weight + systemic / ….
Setting [14] is: systemic / clinical chemistry / fatty acids / fatty acid + systemic / pathology microscopic / bone marrow / hypocellularity + systemic / ….
Setting [15] is: systemic / pathology microscopic / liver / hypertrophy.
Where [16] appears, read: group: developmental, systemic / in life observation / body weight / fetal weight + developmental / developmental malformation / bone / unossified + developmental….
[17] abbreviates: group: maternal, reproductive / reproductive performance / resorptions / resorptions + systemic / in life observation / body weight / body weight + systemic….

Regarding `CCC(C)(C)c1ccc(O)cc1` [4-(2-Methylbutan-2-yl)phenol], in series [1] (setting [10]), the LEL amounted to 500 mg/kg/day, the LOAEL is 500 mg/kg/day, the NEL was found to be 200 mg/kg/day and the NOAEL was determined as 200 mg/kg/day. Moreover, in series [1] (setting [11]), the LEL came out at 200 mg/kg/day, the lowest-observed-adverse-effect level (LOAEL) was 200 mg/kg/day, the NEL was found to be 50 mg/kg/day and the NOAEL stood at 50 mg/kg/day. Moreover, in series [2], the LEL was determined as 10 mg/kg/day, the LOAEL was 10 mg/kg/day, the NEL was determined as 2.5 mg/kg/day and the NOAEL is 2.5 mg/kg/day.
Regarding `Cc1cccc(C)c1NC(=O)CC12CCCN1CCC2.Cl` [Pilsicainide hydrochloride], in series [3], the LEL stood at 10 mg/kg/day, the LOAEL is above 20 mg/kg/day, the NEL turned out to be 5 mg/kg/day and the NOAEL was at least 20 mg/kg/day.
For `Cc1c(C)c2c(c(C)c1O)CCC(C)(COc1ccc(CC3SC(=O)NC3=O)cc1)O2` (centres undefined) [Troglitazone], the LEL in series [4] (setting [12]) worked out at 25 mg/kg/day; in series [5] (setting [15]) it was 50 mg/kg/day; in series [6], 50 mg/kg/day; in series [7], 20 mg/kg/day. The NEL was below 25 mg/kg/day in series [4] (setting [12]), below 50 mg/kg/day in [5] (setting [15]), 4 mg/kg/day in series [6] and below 20 mg/kg/day in [7]. Besides, the lowest-observed-adverse-effect level (LOAEL) was above 100 mg/kg/day in series [4] (setting [13]), above 1200 mg/kg/day in series [5] (setting [14]), above 50 mg/kg/day in [6] and above 2500 mg/kg/day in series [7]. In addition, the NOAEL was at least 100 mg/kg/day in series [4] (setting [13]), at least 1200 mg/kg/day in series [5] (setting [14]), at least 50 mg/kg/day in [6] and at least 2500 mg/kg/day in series [7].
Take `Cc1cc(Cl)ccc1OCC(=O)OCCCCCC(C)C` [MCPA-isooctyl]: in [8], the LEL amounted to 54 mg/kg/day, the LOAEL stood at 54 mg/kg/day, the NEL was 5 mg/kg/day and the NOAEL was 5 mg/kg/day. The LEL in series [9] (group: developmental, developmental / developmental malformation / bone / ossification sites) came to 40 mg/kg/day. Besides, in [9] (setting [16]), the LOAEL was 120 mg/kg/day, the NEL came to 15 mg/kg/day and the NOAEL amounted to 40 mg/kg/day. Also, in series [9] (setting [17]), the LEL came out at 120 mg/kg/day, the LOAEL amounted to 120 mg/kg/day, the NEL amounted to 40 mg/kg/day and the NOAEL was 40 mg/kg/day.
